Results on two molecules are retold here after US20260285809A1, “CRYSTAL OF N-(BENZOYL)-PHENYLALANINE COMPOUND, AND PHARMACEUTICAL COMPOSITION THEREOF, AND PREPARATION METHOD THEREFOR AND USE THEREOF” (Hangzhou Apeloa Medicine Research Institute Co., Ltd., priority 2022, published 2026).

SMILES strings stand for the structures. Values after ≈ are worked out from the molar mass of the structure shown.

A word on the solubility: it is the concentration that dissolves in the medium under given conditions. Read a low solubility as a poorly soluble substance. Broadly, the share remaining is the share of the starting amount still present when the sample was taken. Read a low share remaining as a greater loss. The term Solubility denotes the concentration that dissolves in the medium under given conditions.

Common to all, as to type: physicochemical
A short description of data set [1]: Solubility in biological media (FaSSIF, FeSSIF), HPLC detection. The note with it: for solubility at 0.5 h / solubility at 2 h / solubility at 24 h / Solubility: 37° C. Here is the method: Add 20 mg of the sample (the compound shown by Formula (I) in the form of Crystal Form A) into a 10 ml conical tube, and then add 4 ml of water or biological medium (FeSSIF (pH 5.0) or FaSSIF (pH 6.5)), respectively. Shake the solution at 37° C. for 24 h in a constant temperature bath at 1000 rpm, and take samples at 0.5 h, 2 h and 24 h, respectively. Filter the samples through an aquo-system microporous filter membrane and discard the initial filtrate to obtain the test solution.
Perform an HPLC detection for the test solution ([…]), and calculate the sample concentration according to the standard curve method.
Add 20 mg of the sample (the compound shown by Formula (II) in the form of Crystal Form B) into a 10 ml conical tube, and then add 4 ml of water or biological medium (FeSSIF (pH 5.0) or FaSSIF (pH 6.5)), respectively. Shake the solution at 37° C. for 24 h in a constant temperature bath at 1000 rpm, and take samples at 0.5 h, 2 h and 24 h, respectively. Filter the samples through an aquo-system microporous filter membrane and discard the initial filtrate to obtain the test solution.

A short description of data set [2]: Hygroscopicity by dynamic moisture absorber (DVS). The following applies: for Weight gain at 80% RH: DVS, 25° C.; for Hygroscopicity (definition criteria for hygroscopic weight gain): from weight gain at 80% RH. Here is the method: The humidity change for each gradient within 0%~90% is 10%. Airflow: 200 ml/min; temperature: 25° C.; testing point: one testing point taken every 10% increase in humidity.
Take an appropriate amount of the test sample (the compound shown by Formula (I) in the form of Crystal Form A) to test its hygroscopicity with a dynamic moisture absorber.
Take an appropriate amount of the test sample (the compound shown by Formula (II) in the form of Crystal Form B) to test its hygroscopicity with a dynamic moisture absorber.

The nature of data set [3]: Solid-state stability under high temperature, high humidity, light exposure and acceleration conditions (HPLC purity, XRPD form). The following applies: for remaining at 168 h / remaining at 360 h: solid state. The text has this: Sample on the 7th and 15th day to observe the color change of the samples. Analyze the sample purity and crystal form through HPLC and XPRD detection, respectively.
Sample on the 15th day to observe the color change of the sample. Analyze the sample purity and crystal form through HPLC and XPRD detection, respectively.

The mark [4] stands for this setting: Acceleration 40° C./75% RH, 15d.

Regarding `O=C(N[C@@H](Cc1ccc(N2C(=O)C3(CC3)c3ccc(F)c(F)c32)cc1)C(=O)O)c1c(F)cccc1Cl` [Crystal Form A, (S)-2-(2-chloro-6-fluorobenzoyl amido)-3-(4-(6′,7′-difluoro-2′-oxospiro [cyclopropane-1,3′-indoline]-1′-yl)phenyl) propionic acid], the solubility at 0.5 h in data set [1] (FaSSIF (pH 6.5), 0.5 h) was 2130 µg/mL (≈ 4140 µM); in data set [1] (FeSSIF (pH 5.0), 0.5 h) it was 460 µg/mL (≈ 893 µM). The solubility at 2 h in data set [1] (FaSSIF (pH 6.5), 2 h) was 2230 µg/mL (≈ 4330 µM); in data set [1] (FeSSIF (pH 5.0), 2 h) it was 480 µg/mL (≈ 932 µM). The solubility at 24 h is 2220 µg/mL (≈ 4310 µM) in data set [1] (FaSSIF (pH 6.5), 24 h) and 490 µg/mL (≈ 952 µM) in data set [1] (FeSSIF (pH 5.0), 24 h). The “Solubility in FeSSIF and FaSSIF (in words)” value in data set [1] was “good solubility”; in data set [1] (listed as Crystal form A) it was “relatively good”. Further, the “Weight gain at 80% RH” value in data set [2] is reported as 0.09%. For the same molecule, in data set [2], the “Hygroscopicity (definition criteria for hygroscopic weight gain)” value was “no or almost no hygroscopicity”. The “Change in purity and crystal form (in words)” value in data set [3] (15 days at 60° C., 92.5% RH, 4500 lux and 40° C./75% RH) is reported as “no significant changes”. Moreover, the “Crystal form (XRPD)” value is “Unchanged” in data set [3] (Acceleration 40° C./75% RH, 7d); “Unchanged” in data set [3] (setting [4]); “Unchanged” in data set [3] (High humidity 92.5% RH, 7d); “Unchanged” in data set [3] (High humidity 92.5% RH, 15d); “Unchanged” in data set [3] (High temperature 60° C., 7d); “Unchanged” in data set [3] (High temperature 60° C., 15d). For the same molecule, the “Crystal form (XRPD)” value is reported as “Unchanged” in data set [3] (Light exposure 4500 lux, 7d) and “Unchanged” in data set [3] (Light exposure 4500 lux, 15d). Besides, the share remaining at 168 h in data set [3] (Acceleration 40° C./75% RH, 7d) amounted to 99.4%; in data set [3] (High humidity 92.5% RH, 7d), 99.3%; in data set [3] (High temperature 60° C., 7d), 99.4%; in data set [3] (Light exposure 4500 lux, 7d), 99.2%. Also, the share remaining at 360 h in data set [3] (setting [4]) was 99.4%; in data set [3] (High humidity 92.5% RH, 15d), 99.3%; in data set [3] (High temperature 60° C., 15d), 99.4%; in data set [3] (Light exposure 4500 lux, 15d), 99.2%.

On to `O=C(N[C@@H](Cc1ccc(N2C(=O)C3(CC3)c3ccc(F)c(F)c32)cc1)C(=O)O)c1c(F)cccc1Cl` [Crystal Form B, (S)-2-(2-chloro-6-fluorobenzoyl amido)-3-(4-(6′,7′-difluoro-2′-oxospiro [cyclopropane-1,3′-indoline]-1′-yl)phenyl) propionic acid], for which the Solubility in data set [1] (FaSSIF (pH 6.5), 0.5 h) came to 3187 µg/mL (≈ 6190 µM); in data set [1] (FaSSIF (pH 6.5), 2 h) it was 2961 µg/mL (≈ 5750 µM); in data set [1] (FaSSIF (pH 6.5), 24 h) it was 2791 µg/mL (≈ 5420 µM); in data set [1] (FeSSIF (pH 5.0), 0.5 h), 869 µg/mL (≈ 1690 µM); in data set [1] (FeSSIF (pH 5.0), 2 h), 815 µg/mL (≈ 1580 µM); in data set [1] (FeSSIF (pH 5.0), 24 h) it was 734 µg/mL (≈ 1430 µM). Besides, the “Solubility in FeSSIF and FaSSIF (in words)” value in data set [1] is “relatively good”. For the same molecule, the “Weight gain at 80% RH” value in data set [2] stood at 0.71%. Further, the “Hygroscopicity (definition criteria for hygroscopic weight gain)” value in data set [2] was “slight hygroscopicity”.
